Assays:
[1] = molecular target: T1, full-length Shp2 (Shp2 FL) (Homo sapiens, UniProt Q06124); experiment: in vitro PTP assay (pNPP), full-length Shp2; type: biochemical
T1 sequence (Q06124 1-593): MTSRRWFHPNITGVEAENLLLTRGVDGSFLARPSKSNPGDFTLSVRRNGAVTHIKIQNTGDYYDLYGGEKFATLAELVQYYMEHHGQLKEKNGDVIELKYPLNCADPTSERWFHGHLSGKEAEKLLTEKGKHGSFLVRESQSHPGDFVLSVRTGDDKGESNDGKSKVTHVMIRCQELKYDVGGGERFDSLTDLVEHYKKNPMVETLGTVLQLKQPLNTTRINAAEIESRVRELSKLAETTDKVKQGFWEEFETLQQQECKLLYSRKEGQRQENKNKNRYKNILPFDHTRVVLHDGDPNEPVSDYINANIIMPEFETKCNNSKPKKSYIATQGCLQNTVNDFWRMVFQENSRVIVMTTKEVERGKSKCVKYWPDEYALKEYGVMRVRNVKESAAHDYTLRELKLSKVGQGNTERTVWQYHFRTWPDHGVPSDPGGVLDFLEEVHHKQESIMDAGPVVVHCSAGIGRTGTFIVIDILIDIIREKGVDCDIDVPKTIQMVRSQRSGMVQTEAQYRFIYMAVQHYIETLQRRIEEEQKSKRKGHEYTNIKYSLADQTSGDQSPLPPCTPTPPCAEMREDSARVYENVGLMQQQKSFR
Method: Plasmids for expression of His-tag fusion proteins of human PTP were constructed in PET-28a by PCR subcloning techniques. The constructions contain only the PTP domain except Full-length Shp2. Full-length Shp2 containing Tyr279-to-Ala mutant was generated by PCR-based mutagenesis. All constructs were verified by DNA sequencing. PTP-His fusion proteins were expressed in Escherichia coli BL21 and lysed in the buffer (50 mM NaH2PO4, 300 mM NaCl, 250 mM imidazole, 1 mM dithiothreitol plus 5% glycerol), purified with Ni-NTA Magnetic Agarose Beads (Qiagen). The His-tag recombinant purification protocol was carried out according to the purification under native conditions of the QIAexpress System.
The assay was set in wells of 96-well plate with a final volume of 100 μl of reaction mixture containing 10 mM of NaAc-HAc, 1 mM of ethylene diamine tetraacetic acid, 1 mM of DL-dithiothreitol and 2% of dimethyl sulfoxide, pH 5.5. Activity of the enzyme was assayed by incubating recombinant PTP protein or mutant PTP with various concentrations of Fumos in the mixture at 37 °C for 30 min. Absorbance at 405 nm was detected immediately after addition of varied concentrations of substrate, p-nitrophenyl phosphate (pNPP) to each corresponding well.

[2] = system: Gab1-Shp2 association in MDA-MB-231 cells; experiment: Gab1-Shp2 co-immunoprecipitation, MDA-MB-231; type: cell-based, human; conditions: Fumos alone
Method: Cells were washed with cold PBS twice and lysed in cell lysis buffer for 10 min on ice. Then the lytic cells were centrifugated with 13,000 g for 10 min at 4 °C. The supernatant was transferred to a fresh conical centrifuge tube on ice and added 1 μg of the appropriate control IgG, together with 20 μl of resuspended volume of Protein A/G PLUS-Agarose (Santa Cruz Biotechnology, CA), then incubated at 4 °C for 30 min. The pellet beads were centrifugated at 1,000 g for 5 min at 4 °C. The supernatant with approximately 100–500 μg total cellular protein was incubated with 2 μg primary antibody against Shp2 or Gab1 for 7 h at 4 °C. Then lysates containing protein-antibody complexes were incubated with 20 μl of Protein A/G PLUS-Agarose at 4 °C on a rotating device overnight. Immunoprecipitates were collected by centrifugation at 2,500 rpm and washed for 4 times with 1 ml lysis buffer, then suspended in the loading buffer, boiled, and analyzed by SDS-PAGE.
Figure S1. Fumos inhibits Gab1-Shp2 association in MDA-MB-231 cells.
MDA-MB-231 cells were serum-starved for 18 h, preincubated with or without Fumos (20 μM 24 h), and then treated with EGF (20 ng/ml, 5 min). Shp2 was immunoprecipitated from cell lysate supernatants. Immunoprecipitates were analyzed by immunoblotting with antibodies to Gab1, pY and Shp2.
(1 picture or pasted object on this page, not shown here)

For `CC[C@@H](C)C[C@@H](C)/C=C(C)/C=C/C=C/C=C(\C)C(=O)c1c(O)c(-c2ccc(O)cc2)cn(O)c1=O` [Fumos, Fumosorinone], the IC50 selective ([1]; Shp2 FL relative to Shp2 PTP domain) was 4, the IC50 ([1]; full-length Shp2 (Shp2 FL)) was 26.5 ± 0.37 µM and the “Gab1-Shp2 association without EGF” value [2] was “induces Gab1-Shp2 association”.
